Assays:
[1] = log P by HPLC on reversed-phase column (C18), acidic range; type: physicochemical; settings: formic acid in water/acetonitrile, LC-UV
Description: The log P values were determined according to EEC Directive 79/831 Annex V.A8 by HPLC (high-performance liquid chromatography) on a reversed-phase column (C18) using the following methods: ^[a] […] Calibration was carried out using a homologous series of straight-chain alkan-2-ones (having 3 to 16 carbon atoms) with known log P values. The values between successive alkanones are determined by linear regression.

[2] = test system: Ctenocephalides felis; test: Ctenocephalides felis oral test; type: in vivo; settings: adult cat fleas, oral via citrated cattle blood, 100 ppm, after 2 days
Description: Ctenocephalides felis—Oral Test
Solvent: dimethyl sulfoxide
To produce a suitable active compound formulation, 10 mg of active compound are mixed with 0.5 ml of dimethyl sulfoxide. Dilution with citrated cattle blood gives the desired concentration.
About 20 unfed adult cat fleas (Ctenocephalides felis) are placed into a chamber which is closed at the top and bottom with gauze. A metal cylinder whose bottom end is closed with parafilm is placed onto the chamber. The cylinder contains the blood/active compound formulation, which can be imbibed by the fleas through the parafilm membrane.
After 2 days, the kill in % is determined. 100% means that all of the fleas have been killed; 0% means that none of the fleas have been killed.

[3] = test system: Meloidogyne incognita; test: Meloidogyne incognita test; type: in vivo; settings: lettuce in sand, egg/larvae suspension, 20 ppm, after 14 days
Description: Meloidogyne incognita Test Solvent: 125.0 parts by weight of acetone To produce a suitable active compound formulation, 1 part by weight of active compound is mixed with the stated amount of solvent and the concentrate is diluted to the desired concentration with water. Vessels are filled with sand, active compound solution, an egg/larvae suspension of the southern root-knot nematode (Meloidogyne incognita) and lettuce seeds. The lettuce seeds germinate and the plants develop. The galls develop on the roots. After 14 days, the nematicidal efficacy in % is determined by the formation of galls. 100% means that no galls were found; 0% means that the number of galls on the treated plants corresponds to the untreated control.

[4] = test system: Myzus persicae; test: Myzus persicae oral test; type: in vivo; settings: mixed population, oral through parafilm, 4 ppm, after 5 days
Description: Myzus persicae—Oral Test Solvent: 100 parts by weight of acetone To produce a suitable preparation of active compound, 1 part by weight of active compound is dissolved using the specified parts by weight of solvent and made up with water until the desired concentration is attained. 50 μl of the active compound preparation are transferred into microtitre plates and made up to a final volume of 200 μl with 150 μl of IPL41 insect medium (33%+15% sugar). Subsequently, the plates are sealed with parafilm, which a mixed population of green peach aphids (Myzus persicae) within a second microtitre plate is able to puncture and imbibe the solution through. After 5 days, the efficacy in % is determined. 100% means that all the aphids have been killed; 0% means that no aphids have been killed.

[5] = test system: Spodoptera frugiperda; test: Spodoptera frugiperda spray test; type: in vivo; settings: caterpillars on maize leaf discs, 100 g/ha, after 7 days
Description: Spodoptera frugiperda—Spray Test Solvent: 78.0 parts by weight of acetone • • 1.5 parts by weight of dimethylformamide Emulsifier: alkylaryl polyglycol ether To produce a suitable active compound preparation, 1 part by weight of active compound is dissolved using the stated parts by weight of solvent and made up with water containing an emulsifier concentration of 1000 ppm until the desired concentration is attained. To produce further test concentrations, the formulation is diluted with emulsifier-containing water. Leaf discs of maize (Zea mays) are sprayed with an active compound formulation of the desired concentration and, after drying, populated with caterpillars of the fall armyworm (Spodoptera frugiperda). After 7 days, the efficacy in % is determined. 100% means that all the caterpillars have been killed; 0% means that no caterpillar has been killed.

[6] = test system: Diabrotica balteata; test: Diabrotica balteata spray test; type: in vivo; settings: beetle larvae on germinated wheat grains, 160 μg/cavity, after 7 days
Description: Diabrotica balteata—Spray Test Solvent: 78 parts by weight of acetone • • 1.5 parts by weight of dimethylformamide Emulsifier: alkylaryl polyglycol ether To produce a suitable active compound preparation, 1 part by weight of active compound is dissolved using the stated parts by weight of solvent and made up with water containing an emulsifier concentration of 1000 ppm until the desired concentration is attained. To produce further test concentrations, the formulation is diluted with emulsifier-containing water. Pre-swollen wheat grains (Triticum aestivum) are incubated in a multiwell plate filled with agar and a little water for one day (5 seed grains per cavity). The germinated wheat grains are sprayed with an active compound preparation of the desired concentration. Subsequently, each cavity is infected with 10-20 beetle larvae of Diabrotica balteata. After 7 days, the efficacy in % is determined. 100% means that all wheat plants have grown as in the untreated, uninfected control; 0% means that no wheat plant has grown.

[7] = test system: Myzus persicae; test: Myzus persicae spray test; type: in vivo; settings: Chinese cabbage leaf discs, all stages, 100 g/ha, after 5 days
Description: Myzus persicae—Spray Test Solvent: 78 parts by weight of acetone • • 1.5 parts by weight of dimethylformamide Emulsifier: alkylaryl polyglycol ether To produce a suitable active compound preparation, 1 part by weight of active compound is dissolved using the stated parts by weight of solvent and made up with water containing an emulsifier concentration of 1000 ppm until the desired concentration is attained. To produce further test concentrations, the formulation is diluted with emulsifier-containing water. Discs of Chinese cabbage leaves (Brassica pekinensis) infested by all stages of the green peach aphid (Myzus persicae) are sprayed with an active compound formulation of the desired concentration. After 5 days, the efficacy in % is determined. 100% means that all the aphids have been killed; 0% means that no aphids have been killed.

| chromatographic logP [1] | SMILES | efficacy [4] [%] | efficacy [5] [%] | other results |
| --- | --- | --- | --- | --- |
| 3.37 | Cn1c(C(F)(F)F)cc2nc(-c3nn4cc(C5(C#N)CC5)ccc4c3Br)n(C)c2c1=O | – | – | – |
| 1.55 | N#CC1(c2ccc3c(Br)c(C(=O)O)nn3c2)CC1 [3-Bromo-6-(1-cyanocyclopropyl)pyrazolo[1,5-a]pyridine-2-carboxylic Acid] | – | – | – |
| 2.8 | CCS(=O)(=O)c1c(-c2nc3cc(C(F)(F)F)n(C)c(=O)c3n2C)nn2cc(C3(C#N)CC3)ccc12 [Example I-01] | 100 | – | efficacy (kill in %) [2]: 97%; nematicidal efficacy (formation of galls) [3]: 100% |
| – | CCS(=O)(=O)c1c(-c2nc3cc(C(F)(F)F)n(C)c(=O)c3n2C)nn2cc(CC#N)ccc12 [Example I-02] | 100 | 100 | – |
| – | CCS(=O)(=O)c1c(-c2nc3cc(C(F)(F)F)n(C)c(=O)c3n2C)nn2cc(C3CC3)ccc12 [Example I-03] | 100 | 100 | efficacy [6]: 100%; efficacy [7]: 90% |
